Results on 19 molecules are retold here after patent US20070026398A1, “Protein tyrosine phosphatase-prl-1 a a marker and therapeutic target for pancreatic cancer” (priority 2003, published 2007).

The target in one experiment is T1, PRL-1 (Homo sapiens, UniProt Q93096).
T1 sequence (Q93096 1-173): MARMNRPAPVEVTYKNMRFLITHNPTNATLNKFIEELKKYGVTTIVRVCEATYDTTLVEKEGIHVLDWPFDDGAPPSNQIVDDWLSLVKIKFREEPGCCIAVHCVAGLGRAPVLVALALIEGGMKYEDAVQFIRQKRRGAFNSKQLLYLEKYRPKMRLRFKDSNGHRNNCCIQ
The experiment in a line: in vitro PRL-1 phosphatase enzymatic assay (tyrosine phosphatase / DiFMUP assay). Set-up: INHIBITION % (PRL-1 inhibitory activity): concentration or dose not given beside the values. It is filed as biochemical. The settings on record: for inhibitory activity against PRL-1: Promega tyrosine phosphatase assay system, TNT-expressed His-tagged PRL-1 (FIG. 7C); for INHIBITION % (PRL-1 inhibitory activity): UA Natural Products Library hits. An excerpt:
Assays that measure the removal of phosphates from proteins or peptides containing phosphotyrosine may also be employed in the present invention. One method of screening for drug targets would involve measuring inhibition of PRL-1-mediated tyrosine dephosphorylation. This assay detects the amount of free […] generated in a reaction by measuring the absorbance of a molybdate:malachite green:phosphate complex. This assay detects the activity of protein tyrosine phosphatases. Such assays or systems are commercially available from suppliers such as Promega (Madison, Wis.) or Applied Biosystems (Foster City, Calif.).
Another assay employed in the present invention is an improved method for measuring protein phosphatases for high-throughput screening involving 6,8-difluoro-4-methylumbelliferyl phosphate (DiFMUP). DiFMUP can assay both acid and alkaline phosphatase activity. […] The lower pka of its hydrolysis product makes DiFMUP a sensitive substrate for acid phosphatases, which is not possible with MUP because its fluorescence must be measured at alkaline pH. Furthermore, with its high quantum yield, DiFMUP increases the sensitivity of both acid and alkaline phosphatase measurements. […] DiFMUP enables the quantitation of as little as 1.0 pg/ml alkaline phosphatase.
For example, in the present invention, a bacterial expression system may be employed (i.e., pProEx vector) from which recombinant His-tagged PRl-1 protein may be obtained and purified using a column (i.e., a nickel column). The PRl-1 enzymatic activity in the presence of a drug compound of interest and in combination with DiFMUP substrate may be incubated (about 1 h) and the dephosphorylated substrate detected.
To produce PRL-1 protein for in vitro phosphatase assays, the PRL-1 gene was cloned into an expression vector with a His tag (pcDNA™ 3.1 from Invitrogen) and the protein expressed in vitro using the TNT coupled transcription and translation kit (Promega). […] The molecular weight of this PRL-1 protein (22KDa) is exactly the same as reported in the literature. An in vitro phosphatase assay was conducted using a tyrosine phosphatase assay system (Promega) to confirm the dephosphorylation activity of the recombinant PRL-1 protein.
This assay was optimized and used to screen various compound libraries for PRL-1 inhibitors. […] Compounds identified using the DiFMUP in vitro assay to screen compounds from the Nanosyn Combichem library and the NCI database include NS19999, NS45609, NS45336, and NCI668394 respectively.
The inventors first cloned the full length open reading frame of PRL-1 to the bacteria expression vector pProEx-HTa (Invitrogen) under the control of an IPTG inducible promoter. A six-histidine tag was added to the C-terminus of PRL-1 for quick purification of PRL-1 using the Ni-NTA system. The expression vector was transformed to bacteria strain BL21 and checked for PRL-1 expression using Western blot. For large scale expression, bacteria were grown in 500 ml LB media to logarithm phase (OD600 between 0.5 to 0.9) and induced to express PRL-1 by adding IPTG to final concentration of 1 mM and incubating for 4 hours. Bacteria were harvested by centrifugation at 5,000 rpm for 5 min and resuspended in the Native Binding Buffer (50 mM NaPO4, 0.5M NaCl, pH8.0, and 10 mM imidazole) at 16 ml/100 ml culture. The bacteria cells were then lysated by adding lmg/ml lysozyme and sonication. The cell lysate was centrifuged at 3,000 g for 15 min and the supernatant were then transferred to a 10-ml column pre-packed with 1.5 ml of Ni-NTA resin (Invitrogen). The column was gently agitated for 60 min to allow the binding of the His-tagged PRL-1 to the resin. After the binding reaction, the column was washed with the Native Wash Buffer (50 mM NaPO4, 0.5M NaCl, pH 8.0, and 20 mM imidazole) for 4 times. Finally, the PRL-1 protein was eluted off the column with 10 ml of Native Elution Buffer (50 mM NaPO4, 0.5 M NaCl, pH 8.0, and 250 mM imidazole). […]

Another experiment relates to Mia PaCa-2 cells. The experiment is described as follows: cell proliferation assay in Mia PaCa-2 pancreatic cancer cells. It counts as cell-based. To be noted: Homo sapiens. As for the experimental part: FIGS. 13A-13C. Inhibition of cell proliferation by PRL-1 inhibitors using a SRB staining assay. FIG.13A—Inhibition of MiaPaCa-2 cell growth by UA668394. Cells were exposed to different doses of UA668394 (0.2 μM to 200 μM) for four days by SRB (Sulforhodamine B) staining. […] FIG. 13B—Inhibition of cell proliferation in pancreatic cancer cells Panc-1 and Mia PaCa-2 by the compound UA66839-1 analog. FIG. 13C—Inhibition of cell proliferation in pancreatic cancer cells Panc-l and Mia PaCa-2 by the compound UA668394-2 analog.
Cell Proliferation Assays. Cell proliferation assays with these cell lines are performed to determine the effect of target inhibition on cell growth. Cells are seeded at 2.0-5.0×10^5 cells in 100-mm culture dishes and allow to attach overnight at 37° C. Adherent cells are washed and incubated with serum-free RPMI 1640 or RPMI containing 10% FBS for 48 h, after which they are trypsinized and counted using a hemocytometer. In addition, parallel experiments are perform and instead of cell counts, the proliferative status of the cell lines is determined using flow cytometric analysis of DNA content. For flow analysis, cells are stained with propidium iodide using a modified Krishan technique (Krishan, 1975). All samples are analyze with an FACSCAN flow cytometer (Becton Dickinson) using a 15 mWatt argon ion laser operated at 6 mWatts of power at 488 nm. Photomultiplier tube voltage is adjusted for each control sample to position the G0/G1 to channel 240 on a 1024 channel presentation. Histograms are analyze for cell cycle compartments using CELLQUEST (Becton Dickinson) analysis software. Histograms having 50K events are collected to maximize the statistical validity of the compartmental analysis. The results of this flow analysis allow the examination of the cell cycle distribution of the pancreatic cancer cell lines.
UA668394 was previously identified as a PRL-1 phosphatase inhibitor (IC50=7 μM) using high throughout library screening.
Compounds identified as being positive for anti-PRL-1 activity were tested for their ability to inhibit cell proliferation in human pancreatic cancer cells. The inhibitory activity of UA668394, UA19999 and UA45336 (Table 5) were examined. Cell proliferation assays were conducted using the pancreatic cancer cell line Mia PaCa-2, as described in Example 1. Briefly, 2.0-5.0×10^5 cells were seeded in 100-mm culture dishes and allowed to attach overnight at 37° C. Adherent cells were washed and incubated with serum-free RPMI 1640 or RPMI containing 10% FBS for 48 h, and treated with the compound of interest to determine its effect on the inhibition of cell growth. For example, cells were treated with of the UA668394, UA19999 and UA45336 compounds and analyzed for inhibition of cell proliferative using a MTS assay.

Where [1] appears, read: PRL-1 inhibitors identified by library screening, read-out: IC50.
The mark [2] stands for this setting: MIA PaCa-2, MTS cell proliferation assay, read-out: IC50, inhibition of cell proliferation in Mia PaCa-2 cells.

The structures appear in SMILES notation. Where “and” joins values, the source holds several entries; their conditions need not be identical. Equal values may be shown once. Read-outs that look alike come from different tables or passages of the source.

On to `O=C(O)CN(CCN(CC(=O)O)CC(=O)O)CC(=O)O` [EDTA, reference compound], for which, at PRL-1, the “inhibitory activity against PRL-1” value is given as “some inhibitory activity”. Regarding `COc1cc(NCCC(C)=O)c2ncccc2c1` [UA292O9], the IC50 on PRL-1 (setting [1]) was determined as 41 µM. Turning to `COc1ccccc1C=C1C(=O)NC(=O)NC1=O` [UA12499], the IC50 at PRL-1 (IC50, PRL-1 inhibitors identified by library screening) amounted to 36.5 µM. `CCC1=NN(c2ccccc2)C(=O)C(CC(=O)Nc2ccccc2)c2cc(OC)c(OC)cc21` (centres unmarked) [UA12812]: the IC50 at PRL-1 (setting [1]) was determined as 66 µM.

Turning to `Nc1cc(S(=O)(=O)C(F)(F)F)ccc1C(=O)O` [UA12882, 2-Amino-4-trifluoromethanesulfonyl-benzoic acid], the IC50 on PRL-1 (setting [1]) was 25 µM. Still for that read-out and setting: the figure for `O=C1C=Cc2cc(Br)ccc2C1=O` [UA13082] is 8.7 µM; for `O=C(O)c1ccc2c(c1)C(=O)N(c1cccc3ccccc13)C2=O` [UA13464] it is 72 µM. As for `CC(=O)Oc1cc(OC(C)=O)c2c(c1)OC(=O)C(Cl)C2C` (centres unmarked) [UA14798], the IC50 at PRL-1 (setting [1]) stood at 64 µM. `CN1C(=O)C(=O)c2cc([N+](=O)[O-])ccc21` [UA19999]: the results for the IC50 with Mia PaCa-2 cells (setting [2]) and at PRL-1 (setting [1]) were 120 µM and 33 µM, respectively.

With `Brc1cccc(C2=NC(c3ccccc3)=C3C=CC=CN3C2)c1` [UA21497], the IC50 at PRL-1 (setting [1]) turned out to be 0.1 µM. Regarding `COC(=O)c1nc(O)c2ccccc2c1O` [UA45336], the results for the IC50 with Mia PaCa-2 cells (setting [2]) and on PRL-1 (setting [1]) were 95 µM and 12.5 µM, respectively. For the molecule `O=C1C(O)=C([N+](=O)[O-])C(=O)c2ccccc21` [UA45609], the IC50 on PRL-1 (setting [1]) is 17 µM. For `C=[N+](OC)c1nn(CC(=O)Nc2sc(C)c(C)c2C(N)=O)c(C)c1Br` [UA47548], the “INHIBITION % (PRL-1 inhibitory activity)” value on PRL-1 is recorded as 70%.

On to `C=CCn1c(SCC(=O)O)nnc1-c1ccc([N+](=O)[O-])cc1` [UA58428], for which the “INHIBITION % (PRL-1 inhibitory activity)” value on PRL-1 came to 42%.

Take `C=Cc1ccc2c3c(ccc(C=O)c13)C(Cl)=CC2=O` [UA61880]: at PRL-1, the “INHIBITION % (PRL-1 inhibitory activity)” value came out at 50%. Turning to `NC(=O)c1cc2ccc(O)cc2oc1=O` [UA63415], the “INHIBITION % (PRL-1 inhibitory activity)” value on PRL-1 came to 62%. As to `N#CC1=C(N)NC(=S)C(C(N)=O)C1c1ccccc1F` (centres unmarked) [UA64859], the “INHIBITION % (PRL-1 inhibitory activity)” value on PRL-1 was found to be 76%. For the molecule `O=C1C=C(NCCc2cc(Br)c(O)c(Br)c2)C(=O)c2ncccc21` [UA668394], the IC50 with Mia PaCa-2 cells (MIA PaCa-2, 96 h, SRB staining, four days exposure, 0.2 μM to 200 μM (FIG. 13A legend), read-out: estimated IC50, inhibition of MiaPaCa-2 cell growth) was 1.2 µM; in the experiment with Mia PaCa-2 cells (setting [2]) it was 1.2 µM; at PRL-1 (setting [1]), 7 µM and 7.2 µM.

Take `[Na+].[Na+].[Na+].[O]=[V]([O-])([O-])[O-]` [sodium orthovanadate, reference compound]: on PRL-1, the “inhibitory activity against PRL-1” value is “some inhibitory activity”.
